Laboratory results taken from ChEMBL document CHEMBL5338754, “Identification of Binding Sites in the Nucleotide-Binding Domain of P-Glycoprotein for a Potent and Nontoxic Modulator, the Amine-Containing Monomeric Flavonoid FM04” (J Med Chem, 2023).

Key:
[1] = target: T1, ATP-dependent translocase ABCB1 (Homo sapiens, UniProt P08183, Q1193A); test: Negative allosteric modulator activity at human P-gp Q1193A mutant expressed in HEK293FT cells assessed as increase in intracellular doxorubicin accumulation using doxorubicin as substrate at 1 uM incubated for 150 mins by microplate reader assay (reference value: 53.6 +/- 3 %); assay type: cell-based; conditions: 2.5 h
T1 sequence (P08183 whole entry Q1193A): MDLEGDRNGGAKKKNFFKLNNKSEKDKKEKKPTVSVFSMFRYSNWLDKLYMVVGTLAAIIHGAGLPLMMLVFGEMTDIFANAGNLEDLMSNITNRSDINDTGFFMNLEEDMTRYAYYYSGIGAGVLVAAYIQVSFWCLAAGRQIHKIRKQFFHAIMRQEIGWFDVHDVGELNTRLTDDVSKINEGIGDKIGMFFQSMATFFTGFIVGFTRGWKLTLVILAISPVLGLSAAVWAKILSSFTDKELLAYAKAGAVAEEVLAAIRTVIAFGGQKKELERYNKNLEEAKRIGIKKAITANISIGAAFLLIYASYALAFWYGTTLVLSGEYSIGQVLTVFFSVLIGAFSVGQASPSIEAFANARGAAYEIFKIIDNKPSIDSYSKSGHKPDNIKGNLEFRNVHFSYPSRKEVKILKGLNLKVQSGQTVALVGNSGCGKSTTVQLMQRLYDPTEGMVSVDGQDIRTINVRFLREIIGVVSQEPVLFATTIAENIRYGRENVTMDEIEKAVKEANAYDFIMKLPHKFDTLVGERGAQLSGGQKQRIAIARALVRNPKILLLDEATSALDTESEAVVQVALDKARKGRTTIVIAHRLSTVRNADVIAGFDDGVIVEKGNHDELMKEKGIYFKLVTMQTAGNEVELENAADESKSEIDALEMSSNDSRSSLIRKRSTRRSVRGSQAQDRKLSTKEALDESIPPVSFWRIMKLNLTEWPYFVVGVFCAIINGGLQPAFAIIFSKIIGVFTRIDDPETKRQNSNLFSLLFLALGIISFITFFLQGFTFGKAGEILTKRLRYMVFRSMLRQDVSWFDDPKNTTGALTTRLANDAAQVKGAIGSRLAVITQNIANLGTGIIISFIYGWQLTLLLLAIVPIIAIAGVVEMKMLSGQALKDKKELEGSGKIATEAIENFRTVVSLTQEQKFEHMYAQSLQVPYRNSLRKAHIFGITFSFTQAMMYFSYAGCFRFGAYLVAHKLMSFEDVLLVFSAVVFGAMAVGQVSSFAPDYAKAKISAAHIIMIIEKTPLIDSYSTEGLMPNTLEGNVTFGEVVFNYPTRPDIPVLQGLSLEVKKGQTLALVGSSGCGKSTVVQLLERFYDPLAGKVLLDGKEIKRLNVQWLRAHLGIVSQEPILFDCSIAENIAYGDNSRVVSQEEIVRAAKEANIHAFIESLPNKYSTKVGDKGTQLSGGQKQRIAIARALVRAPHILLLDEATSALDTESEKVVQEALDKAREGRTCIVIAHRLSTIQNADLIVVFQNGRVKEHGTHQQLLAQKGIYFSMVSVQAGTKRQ

[2] = target: ATP-dependent translocase ABCB1 (Homo sapiens, UniProt P08183, Q1193N); test: Negative allosteric modulator activity at human P-gp Q1193N mutant expressed in HEK293FT cells assessed as fold change in intracellular doxorubicin accumulation using doxorubicin as substrate at 1 uM incubated for 150 mins by microplate reader assay relative to DMSO; assay type: cell-based; conditions: 2.5 h
[3] = target: T2, ATP-dependent translocase ABCB1 (Homo sapiens, UniProt P08183, I1115F); test: Negative allosteric modulator activity at human P-gp I1115F mutant expressed in HEK293FT cells assessed as reversal of P-gp mediated PTX resistance by measuring sensitivity fold change incubated for 5 days by MTS assay; assay type: cell-based; conditions: 120 h, time 5 day
T2 sequence (P08183 whole entry I1115F): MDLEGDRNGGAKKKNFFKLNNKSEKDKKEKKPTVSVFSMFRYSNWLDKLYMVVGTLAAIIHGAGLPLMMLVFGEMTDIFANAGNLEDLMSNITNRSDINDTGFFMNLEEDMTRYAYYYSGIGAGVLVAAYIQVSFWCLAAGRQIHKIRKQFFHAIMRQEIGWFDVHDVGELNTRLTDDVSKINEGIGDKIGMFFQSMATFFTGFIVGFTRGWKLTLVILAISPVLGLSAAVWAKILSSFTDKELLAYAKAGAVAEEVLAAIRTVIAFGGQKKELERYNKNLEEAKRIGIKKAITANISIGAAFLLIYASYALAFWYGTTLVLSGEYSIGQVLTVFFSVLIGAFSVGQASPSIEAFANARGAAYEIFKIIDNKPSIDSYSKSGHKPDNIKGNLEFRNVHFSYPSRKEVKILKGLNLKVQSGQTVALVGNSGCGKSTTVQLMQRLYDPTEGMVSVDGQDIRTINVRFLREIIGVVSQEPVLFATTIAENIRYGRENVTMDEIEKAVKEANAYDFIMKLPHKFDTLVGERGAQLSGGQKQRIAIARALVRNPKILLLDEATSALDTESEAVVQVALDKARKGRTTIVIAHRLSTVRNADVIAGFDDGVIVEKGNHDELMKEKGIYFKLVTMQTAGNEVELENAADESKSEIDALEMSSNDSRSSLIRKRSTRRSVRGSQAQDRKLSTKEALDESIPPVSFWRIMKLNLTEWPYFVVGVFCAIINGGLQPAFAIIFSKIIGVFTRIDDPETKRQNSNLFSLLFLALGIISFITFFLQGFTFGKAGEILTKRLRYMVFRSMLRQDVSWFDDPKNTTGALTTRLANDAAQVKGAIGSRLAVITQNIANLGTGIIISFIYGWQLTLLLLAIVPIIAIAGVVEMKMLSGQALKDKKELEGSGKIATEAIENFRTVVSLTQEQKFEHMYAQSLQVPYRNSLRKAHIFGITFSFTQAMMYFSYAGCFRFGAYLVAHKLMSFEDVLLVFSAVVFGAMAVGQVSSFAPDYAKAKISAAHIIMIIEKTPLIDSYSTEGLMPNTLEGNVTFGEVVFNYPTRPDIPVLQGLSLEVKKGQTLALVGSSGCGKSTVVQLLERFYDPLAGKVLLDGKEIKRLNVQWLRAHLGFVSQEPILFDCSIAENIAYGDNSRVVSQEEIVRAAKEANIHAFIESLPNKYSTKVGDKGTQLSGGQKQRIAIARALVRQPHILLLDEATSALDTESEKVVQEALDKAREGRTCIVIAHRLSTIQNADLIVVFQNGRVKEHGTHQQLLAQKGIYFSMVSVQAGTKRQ

[4] = target: ATP-dependent translocase ABCB1 (Homo sapiens, UniProt P08183, I1115Y); test: Negative allosteric modulator activity at human P-gp I1115Y mutant expressed in HEK293FT cells assessed as increase in intracellular doxorubicin accumulation using doxorubicin as substrate at 1 uM incubated for 150 mins by microplate reader assay (reference value: 97.3 +/- 3.7 %); assay type: cell-based; conditions: 2.5 h
ATP-dependent translocase ABCB1 (Homo sapiens, UniProt P08183, I1115Y), sequence (P08183 whole entry I1115Y): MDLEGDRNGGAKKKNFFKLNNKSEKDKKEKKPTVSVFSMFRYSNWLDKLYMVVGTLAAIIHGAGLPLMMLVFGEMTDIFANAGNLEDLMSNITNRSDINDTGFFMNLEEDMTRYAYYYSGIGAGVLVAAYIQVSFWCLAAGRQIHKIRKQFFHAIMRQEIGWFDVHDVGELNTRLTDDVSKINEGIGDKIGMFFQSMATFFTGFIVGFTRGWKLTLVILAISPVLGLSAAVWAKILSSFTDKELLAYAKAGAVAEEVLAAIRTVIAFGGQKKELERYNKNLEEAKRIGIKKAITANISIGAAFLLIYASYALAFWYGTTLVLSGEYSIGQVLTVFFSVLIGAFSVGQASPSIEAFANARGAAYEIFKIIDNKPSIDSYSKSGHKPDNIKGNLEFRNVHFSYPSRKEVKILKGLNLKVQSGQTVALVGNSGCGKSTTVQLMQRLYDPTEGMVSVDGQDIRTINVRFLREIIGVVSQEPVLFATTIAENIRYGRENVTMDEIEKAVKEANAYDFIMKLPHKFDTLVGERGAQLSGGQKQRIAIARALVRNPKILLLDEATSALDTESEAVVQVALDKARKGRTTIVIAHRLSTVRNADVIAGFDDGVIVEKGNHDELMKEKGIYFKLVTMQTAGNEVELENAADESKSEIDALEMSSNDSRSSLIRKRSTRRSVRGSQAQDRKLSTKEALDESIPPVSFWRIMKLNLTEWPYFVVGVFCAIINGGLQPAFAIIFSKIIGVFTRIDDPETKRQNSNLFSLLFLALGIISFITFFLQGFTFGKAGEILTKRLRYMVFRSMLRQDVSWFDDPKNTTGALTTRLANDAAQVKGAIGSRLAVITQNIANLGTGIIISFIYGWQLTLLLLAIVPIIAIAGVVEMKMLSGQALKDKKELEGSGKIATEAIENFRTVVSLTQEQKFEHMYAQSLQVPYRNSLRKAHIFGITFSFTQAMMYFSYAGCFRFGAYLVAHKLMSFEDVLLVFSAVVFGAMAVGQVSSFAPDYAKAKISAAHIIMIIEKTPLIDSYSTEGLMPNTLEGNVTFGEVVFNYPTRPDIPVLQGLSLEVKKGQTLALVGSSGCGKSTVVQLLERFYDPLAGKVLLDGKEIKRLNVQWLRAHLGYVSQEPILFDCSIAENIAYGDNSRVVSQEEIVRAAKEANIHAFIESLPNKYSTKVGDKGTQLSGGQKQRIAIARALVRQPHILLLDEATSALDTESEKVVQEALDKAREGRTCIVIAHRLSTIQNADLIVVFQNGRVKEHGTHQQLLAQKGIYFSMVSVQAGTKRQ

P-gp (ABCB1) wildtype = P-gp (ABCB1) wildtype (Homo sapiens, UniProt P08183); test: Activation of P-gp ATPase activity in wildtype human P-gp expressed in HEK293FT cell microsomes assessed as fold change of ATPase activity at 20 uM incubated for 1 hr in presence of ATP by Glo-luminescence based microplate reader assay relative to DMSO; parameters: species or system Microsome; conditions: microsomes of HEK293FT cells expressing wildtype human P-gp, read-out: FC
[5] = target: ATP-dependent translocase ABCB1 (Homo sapiens, UniProt P08183, I1115L); test: Negative allosteric modulator activity at human P-gp I1115L mutant expressed in HEK293FT cells assessed as reversal of P-gp mediated PTX resistance by measuring sensitivity fold change incubated for 5 days by MTS assay; assay type: cell-based; conditions: 120 h, time 5 day
[6] = target: ATP-dependent translocase ABCB1 (Homo sapiens, UniProt P08183, G1114V); test: Negative allosteric modulator activity at human P-gp G1114V mutant expressed in HEK293FT cells assessed as increase in intracellular doxorubicin accumulation using doxorubicin as substrate at 1 uM incubated for 150 mins by microplate reader assay (reference value: 102 +/- 2.6 %); assay type: cell-based; conditions: 2.5 h
[7] = target: T2, ATP-dependent translocase ABCB1; test: Activation of P-gp ATPase activity in human P-gp I1115F mutant expressed in HEK293FT cell microsomes at 20 uM incubated for 1 hr in presence of ATP by Glo-luminescence based microplate reader assay (reference value: 0.21 +/- 0.05 pmol/min/microg); parameters: species or system Microsome
[8] = target: ATP-dependent translocase ABCB1 (Homo sapiens, UniProt P08183, G1114I); test: Negative allosteric modulator activity at human P-gp G1114I mutant expressed in HEK293FT cells assessed as increase in intracellular doxorubicin accumulation using doxorubicin as substrate at 1 uM incubated for 150 mins by microplate reader assay (reference value: 94.7 +/- 2.7 %); assay type: cell-based; conditions: 2.5 h
[9] = target: ATP-dependent translocase ABCB1 (Homo sapiens, UniProt P08183); test: Activation of P-gp ATPase activity in wildtype human P-gp expressed in HEK293FT cell microsomes at 20 uM incubated for 1 hr in presence of ATP by Glo-luminescence based microplate reader assay (reference value: 0.32 +/- 0.02 pmol/min/microg); parameters: species or system Microsome
[10] = target: T1, ATP-dependent translocase ABCB1; test: Activation of P-gp ATPase activity in human P-gp Q1193A mutant expressed in HEK293FT cell microsomes at 20 uM incubated for 1 hr in presence of ATP by Glo-luminescence based microplate reader assay (reference value: 0.38 +/- 0.04 pmol/min/microg); parameters: species or system Microsome
[11] = target: ATP-dependent translocase ABCB1 (Homo sapiens, UniProt P08183, Q1193E); test: Negative allosteric modulator activity at human P-gp Q1193E mutant expressed in HEK293FT cells assessed as fold change in intracellular doxorubicin accumulation using doxorubicin as substrate at 1 uM incubated for 150 mins by microplate reader assay relative to DMSO; assay type: cell-based; conditions: 2.5 h
[12] = target: ATP-dependent translocase ABCB1 (Homo sapiens, UniProt P08183, G1114A); test: Negative allosteric modulator activity at human P-gp G1114A mutant expressed in HEK293FT cells assessed as fold change in intracellular doxorubicin accumulation using doxorubicin as substrate at 1 uM incubated for 150 mins by microplate reader assay relative to DMSO; assay type: cell-based; conditions: 2.5 h
[13] = target: ATP-dependent translocase ABCB1 (Homo sapiens, UniProt P08183, I1115W); test: Negative allosteric modulator activity at human P-gp I1115W mutant expressed in HEK293FT cells assessed as fold change in intracellular doxorubicin accumulation using doxorubicin as substrate at 1 uM incubated for 150 mins by microplate reader assay relative to DMSO; assay type: cell-based; conditions: 2.5 h
[14] = target: ATP-dependent translocase ABCB1 (Mus musculus, UniProt P06795); test: Binding affinity to mouse P-glycoprotein expressed in Pichia pastoris assessed as stabilization of protein by measuring fluorescence at 100 uM incubated for 1 hr by Western blotting analysis
ATP-dependent translocase ABCB1 (Mus musculus, UniProt P06795), sequence (P06795 whole entry): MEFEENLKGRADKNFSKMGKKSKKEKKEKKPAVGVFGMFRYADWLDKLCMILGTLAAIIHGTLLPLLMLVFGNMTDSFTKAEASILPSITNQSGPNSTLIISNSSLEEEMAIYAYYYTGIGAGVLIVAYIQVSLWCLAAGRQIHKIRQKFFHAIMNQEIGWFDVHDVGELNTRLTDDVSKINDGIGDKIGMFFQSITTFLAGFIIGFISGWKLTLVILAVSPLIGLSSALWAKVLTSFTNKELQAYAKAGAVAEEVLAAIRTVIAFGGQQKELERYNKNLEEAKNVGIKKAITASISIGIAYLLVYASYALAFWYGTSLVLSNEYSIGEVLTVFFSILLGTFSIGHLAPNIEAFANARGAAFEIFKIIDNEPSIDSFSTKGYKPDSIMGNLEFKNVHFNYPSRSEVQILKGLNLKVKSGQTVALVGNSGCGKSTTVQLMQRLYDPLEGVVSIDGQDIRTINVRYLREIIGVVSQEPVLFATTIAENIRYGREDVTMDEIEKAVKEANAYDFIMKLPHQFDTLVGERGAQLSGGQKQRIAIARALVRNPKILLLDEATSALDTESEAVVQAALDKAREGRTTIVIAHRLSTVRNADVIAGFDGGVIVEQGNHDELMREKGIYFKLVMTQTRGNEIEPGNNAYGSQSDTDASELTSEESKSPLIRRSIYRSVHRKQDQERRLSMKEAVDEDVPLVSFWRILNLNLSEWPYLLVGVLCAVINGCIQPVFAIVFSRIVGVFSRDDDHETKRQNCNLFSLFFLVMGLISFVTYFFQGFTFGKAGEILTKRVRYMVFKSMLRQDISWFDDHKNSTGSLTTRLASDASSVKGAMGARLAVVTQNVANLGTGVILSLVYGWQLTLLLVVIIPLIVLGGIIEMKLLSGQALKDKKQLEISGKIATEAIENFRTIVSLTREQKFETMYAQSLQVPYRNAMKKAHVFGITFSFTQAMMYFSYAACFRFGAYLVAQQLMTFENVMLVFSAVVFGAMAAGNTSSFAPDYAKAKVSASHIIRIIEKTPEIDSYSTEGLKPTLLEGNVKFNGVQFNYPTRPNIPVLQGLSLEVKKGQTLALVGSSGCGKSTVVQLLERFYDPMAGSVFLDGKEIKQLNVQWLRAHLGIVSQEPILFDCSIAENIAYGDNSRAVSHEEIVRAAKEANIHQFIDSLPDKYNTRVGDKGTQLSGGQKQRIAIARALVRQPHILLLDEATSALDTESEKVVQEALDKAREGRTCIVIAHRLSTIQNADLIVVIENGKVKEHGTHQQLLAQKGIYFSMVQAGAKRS

[15] = target: ATP-dependent translocase ABCB1 (Homo sapiens, UniProt P08183, T1226Y); test: Negative allosteric modulator activity at human P-gp T1226Y mutant expressed in HEK293FT cells assessed as reversal of P-gp mediated PTX resistance by measuring sensitivity fold change incubated for 5 days by MTS assay; assay type: cell-based; conditions: 120 h, time 5 day
[16] = target: ATP-dependent translocase ABCB1 (Homo sapiens, UniProt P08183, G1114L); test: Negative allosteric modulator activity at human P-gp G1114L mutant expressed in HEK293FT cells assessed as increase in intracellular doxorubicin accumulation using doxorubicin as substrate at 1 uM incubated for 150 mins by microplate reader assay (reference value: 97.9 +/- 4.2 %); assay type: cell-based; conditions: 2.5 h
[17] = target: ATP-dependent translocase ABCB1 (Homo sapiens, UniProt P08183, Q1193C); test: Activation of P-gp ATPase activity in human P-gp Q1193C mutant expressed in HEK293FT cell microsomes at 20 uM incubated for 1 hr in presence of ATP by Glo-luminescence based microplate reader assay (reference value: 0.45 +/- 0.04 pmol/min/microg); parameters: species or system Microsome
[18] = target: ATP-dependent translocase ABCB1 (Homo sapiens, UniProt P08183, H1195A); test: Negative allosteric modulator activity at human P-gp H1195A mutant expressed in HEK293FT cells assessed as increase in intracellular doxorubicin accumulation using doxorubicin as substrate at 1 uM incubated for 150 mins by microplate reader assay (reference value: 78.1 +/- 1.4 %); assay type: cell-based; conditions: 2.5 h
[19] = target: ATP-dependent translocase ABCB1 (Homo sapiens, UniProt P08183, Q1193T); test: Negative allosteric modulator activity at human P-gp Q1193T mutant expressed in HEK293FT cells assessed as reversal of P-gp mediated PTX resistance by measuring sensitivity fold change incubated for 5 days by MTS assay; assay type: cell-based; conditions: 120 h, time 5 day

## O=c1cc(-c2ccc(OCCOCCNCc3ccccc3)cc2)oc2ccccc12
[1]
  Activity: 59.8%
[2]
  fold change (FC): 1.5
[3]
  fold change (FC): 15.6
[4]
  Activity: 96.4%
P-gp (ABCB1) wildtype
  fold induction at 1 h, 20 µM: 1.6
[5]
  fold change (FC): 45.8
[6]
  Activity: 102.5%
[7]
  Activity: 0.25 pmol/min/µg
[8]
  Activity: 98.9%
[9]
  Activity: 0.52 pmol/min/µg
[10]
  Activity: 0.42 pmol/min/µg
[11]
  fold change (FC): 1.1
[12]
  fold change (FC): 1
[13]
  fold change (FC): 1
[14]
  Activity: Not Active
[15]
  fold change (FC): 62.4
[16]
  Activity: 95%
[17]
  Activity: 0.57 pmol/min/µg
[18]
  Activity: 83.9%
[19]
  fold change (FC): 8.5
